Patent US9850283B2, “Macrocyclic inhibitors of the PD-1/PD-L1 and CD80(B7-1)/PD-L1 protein/protein interactions” (BRISTOL-MYERS SQUIBB COMPANY, priority 2013, dated 2017)
pIC50: −log10 of the molar value. Positions of bridges follow the written chain, without caps; N, C: chain ends. Non-standard residues stand in square brackets, D forms with d. Residues, ends and D or L forms follow the SMILES beside them. Phe(4-CH2NH2) = NCc1ccc(C[C@H](N)C(=O)O)cc1; 2Nal = N[C@@H](Cc1ccc2ccccc2c1)C(=O)O; NMeF = CN[C@@H](Cc1ccccc1)C(=O)O; NMeNle = CCCC[C@H](NC)C(=O)O; Sar = CNCC(=O)O

Legend:
Human PD-L1/PD-1 = biological target: T1, Human PD-L1/PD-1 (Homo sapiens, UniProt Q9NZQ7); assay: HTRF PD-1-Ig/PD-L1-His binding assay (human PD-L1); conditions: cluster symbol; read-out: HTRF IC50 cluster
T1 construct: made in house; host or cells: HEK293T
Outline: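 Soluble PD-1-Ig binding to PD-L1-His measured by HTRF in dPBS with 0.1% BSA and 0.05% Tween-20. Detection used europium cryptate anti-Ig antibody (1 nM final) and APC anti-His antibody (20 nM final) added on top of the binding reaction.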

[1] = biological target: T2, LK35.2-hPD-L1 cells / PE-labeled PD-1-Ig (Homo sapiens, UniProt Q9NZQ7); assay: LK35.2-hPD-L1 cell binding high-content screening assay; type: cell-based; conditions: cell binding assay, cell line not given; cluster symbol; read-out: CBA IC50 cluster
T2 construct: expressed in transfected cells; host or cells: LK35.2 mouse B cell line
Outline: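 Mouse LK35.2 B cells stably overexpressing human PD-L1 were cultured overnight in RPMI with 10% FCS, then given compound and PE-labeled human PD-1-Ig (1 nM final) for 1 h at 37 °C. After three dPBS washes, bound fluorescence was quantified by high-content imaging.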

T1 sequence (Q9NZQ7 with tags, fused parts or gaps): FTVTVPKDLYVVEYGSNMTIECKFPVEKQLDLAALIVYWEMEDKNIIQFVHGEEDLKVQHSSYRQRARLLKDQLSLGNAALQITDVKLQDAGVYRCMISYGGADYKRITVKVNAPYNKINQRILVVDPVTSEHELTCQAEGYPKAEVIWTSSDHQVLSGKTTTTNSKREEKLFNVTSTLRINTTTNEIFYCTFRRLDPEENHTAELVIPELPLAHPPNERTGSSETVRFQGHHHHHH
T2 sequence (Q9NZQ7 19-290): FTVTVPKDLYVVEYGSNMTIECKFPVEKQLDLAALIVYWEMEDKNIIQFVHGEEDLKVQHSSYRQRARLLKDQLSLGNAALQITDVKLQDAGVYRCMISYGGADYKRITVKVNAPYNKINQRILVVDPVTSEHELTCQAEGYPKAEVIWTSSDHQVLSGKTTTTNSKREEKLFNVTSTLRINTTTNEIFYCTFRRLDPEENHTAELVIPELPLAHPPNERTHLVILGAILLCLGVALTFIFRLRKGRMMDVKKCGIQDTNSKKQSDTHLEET

| SMILES | pIC50 (Human PD-L1/PD-1) | pIC50 [1] |
| --- | --- | --- |
| CCCC[C@H]1C(=O)N(C)CC(=O)N[C@@H](CC(=O)O)C(=O)N[C@@H](C(C)C)C(=O)N(C)[C@@H](Cc2ccccc2)C(=O)N[C@@H](Cc2ccc(O)cc2)C(=O)N(C)CC(=O)N[C@@H](Cc2c[nH]c3ccccc23)C(=O)N[C@@H](Cc2ccc(O)cc2)C(=O)N[C@@H](Cc2ccc(CN)cc2)C(=O)N[C@H](C(=O)NCC(N)=O)CSCC(=O)N[C@@H](Cc2ccccc2)C(=O)N(C)[C@@H](Cc2ccccc2)C(=O)N1C [Example 3536] ({CH2CO}-F[NMeF][NMeNle][Sar]DV[NMeF]Y[Sar]WY[Phe(4-CH2NH2)]CG-NH2; thioether N-13) | 7.52 to 8.17 | 7.14 to 8.32 |
| CCCC[C@H]1C(=O)N(C)CC(=O)N[C@@H](CC(=O)O)C(=O)N[C@@H](C(C)C)C(=O)N(C)[C@@H](Cc2ccccc2)C(=O)N[C@@H](Cc2ccc(O)cc2)C(=O)N(C)CC(=O)N[C@@H](Cc2c[nH]c3ccccc23)C(=O)N[C@@H](Cc2ccc(O)cc2)C(=O)N[C@@H](Cc2ccccc2)C(=O)N[C@H](C(=O)NCC(N)=O)CSCC(=O)N[C@@H](Cc2ccccc2)C(=O)N(C)[C@@H](Cc2ccccc2)C(=O)N1C [Example 3537] (HELM PEPTIDE1{[O=C(C[*:3])[*:2]].F.[meF].[CCCC[C@@H](C(=O)[*:2])N(C)[*:1]].[Sar].D.V.[meF].Y.[Sar].W.Y.F.C.G.[am]}$PEPTIDE1,PEPTIDE1,1:R3-14:R3$$$V2.0) | 7.52 to 8.17 | 7.14 to 8.32 |
| CCCC[C@H]1C(=O)N(C)CC(=O)N[C@@H](CC(=O)O)C(=O)N[C@@H](C(C)C)C(=O)N(C)[C@@H](Cc2ccccc2)C(=O)N[C@@H](Cc2ccc(O)cc2)C(=O)N(C)CC(=O)N[C@@H](Cc2c[nH]c3ccccc23)C(=O)N[C@@H](Cc2c[nH]c3ccccc23)C(=O)N[C@@H](CC(C)C)C(=O)N[C@H](C(=O)NCC(N)=O)CSCC(=O)N[C@@H](Cc2ccccc2)C(=O)N(C)[C@@H](Cc2ccccc2)C(=O)N1C [Example 3539] (HELM PEPTIDE1{[O=C(C[*:3])[*:2]].F.[meF].[CCCC[C@@H](C(=O)[*:2])N(C)[*:1]].[Sar].D.V.[meF].Y.[Sar].W.W.L.C.G.[am]}$PEPTIDE1,PEPTIDE1,1:R3-14:R3$$$V2.0) | < 7.52 | < 7.13 |

Second part, the molecule after the results:

| pIC50 (Human PD-L1/PD-1) | pIC50 [1] | SMILES |
| --- | --- | --- |
| 7.52 to 8.17 | 7.14 to 8.32 | CCCC[C@H]1C(=O)N(C)CC(=O)N[C@@H](CC(=O)O)C(=O)N[C@@H](C(C)C)C(=O)N(C)[C@@H](Cc2ccccc2)C(=O)N[C@@H](Cc2ccccc2)C(=O)N(C)CC(=O)N[C@@H](Cc2c[nH]c3ccccc23)C(=O)N[C@@H](Cc2ccc(O)cc2)C(=O)N[C@@H](CC(C)C)C(=O)N[C@H](C(=O)NCC(N)=O)CSCC(=O)N[C@@H](Cc2ccccc2)C(=O)N(C)[C@@H](Cc2ccccc2)C(=O)N1C [Example 3534] (HELM PEPTIDE1{[O=C(C[*:3])[*:2]].F.[meF].[CCCC[C@@H](C(=O)[*:2])N(C)[*:1]].[Sar].D.V.[meF].F.[Sar].W.Y.L.C.G.[am]}$PEPTIDE1,PEPTIDE1,1:R3-14:R3$$$V2.0) |
| < 7.52 | 7.14 to 8.32 | CCCC[C@H]1C(=O)N(C)CC(=O)N[C@@H](CC(=O)O)C(=O)N[C@@H](C(C)C)C(=O)N(C)[C@@H](Cc2ccccc2)C(=O)N[C@@H](Cc2ccc3ccccc3c2)C(=O)N(C)CC(=O)N[C@@H](Cc2c[nH]c3ccccc23)C(=O)N[C@@H](Cc2ccc(O)cc2)C(=O)N[C@@H](CC(C)C)C(=O)N[C@H](C(=O)NCC(N)=O)CSCC(=O)N[C@@H](Cc2ccccc2)C(=O)N(C)[C@@H](Cc2ccccc2)C(=O)N1C [Example 3535] ({CH2CO}-F[NMeF][NMeNle][Sar]DV[NMeF][2Nal][Sar]WYLCG-NH2; thioether N-13) |
| < 7.52 | < 7.13 | CCCC[C@H]1C(=O)N(C)CC(=O)N[C@@H](CC(=O)O)C(=O)N[C@@H](C(C)C)C(=O)N(C)[C@@H](Cc2ccccc2)C(=O)N[C@@H](Cc2ccc(O)cc2)C(=O)N(C)CC(=O)N[C@@H](Cc2c[nH]c3ccccc23)C(=O)N[C@@H](Cc2ccc3ccccc3c2)C(=O)N[C@@H](CC(C)C)C(=O)N[C@H](C(=O)NCC(N)=O)CSCC(=O)N[C@@H](Cc2ccccc2)C(=O)N(C)[C@@H](Cc2ccccc2)C(=O)N1C [Example 3538] ({CH2CO}-F[NMeF][NMeNle][Sar]DV[NMeF]Y[Sar]W[2Nal]LCG-NH2; thioether N-13) |
